# Experimental data published in PMC7329795 (Pharmacological Reports, 2020).
# Where two headings read alike, the source gives them in different places.
# B1: CYP1A2 (Homo sapiens) (protein)
# chain: MALSQSVPFSATELLLASAIFCLVFWVLKGLRPRVPKGLKSPPEPWGWPLLGHVLTLGKNPHLALSRMSQRYGDVLQIRIGSTPVLVLSRLDTIRQALVRQGDDFKGRPDLYTSTLITDGQSLTFSTDSGPVWAARRRLAQNALNTFSIASDPASSSSCYLEEHVSKEAKALISRLQELMAGPGHFDPYNQVVVSVANVIGAMCFGQHFPESSDEMLSLVKNTHEFVETASSGNPLDFFPILRYLPNPALQRFKAFNQRFLWFLQKTVQEHYQDFDKNSVRDITGALFKHSKKGPRASGNLIPQEKIVNLVNDIFGAGFDTVTTAISWSLMYLVTKPEIQRKIQKELDTVIGRERRPRLSDRPQLPYLEAFILETFRHSSFLPFTIPHSTTRDTTLNGFYIPKKCCVFVNQWQVNHDPELWEDPSEFRPERFLTADGTAINKPLSEKMMLFGMGKRRCIGEVLAKWEIFLFLAILLQQLEFSVPPGVKVDLTPIYGLTMKHARCEHVQARLRFSIN
# B2: CYP2C19 (Homo sapiens) (protein)
# chain: MDPFVVLVLCLSCLLLLSIWRQSSGRGKLPPGPTPLPVIGNILQIDIKDVSKSLTNLSKIYGPVFTLYFGLERMVVLHGYEVVKEALIDLGEEFSGRGHFPLAERANRGFGIVFSNGKRWKEIRRFSLMTLRNFGMGKRSIEDRVQEEARCLVEELRKTKASPCDPTFILGCAPCNVICSIIFQKRFDYKDQQFLNLMEKLNENIRIVSTPWIQICNNFPTIIDYFPGTHNKLLKNLAFMESDILEKVKEHQESMDINNPRDFIDCFLIKMEKEKQNQQSEFTIENLVITAADLLGAGTETTSTTLRYALLLLLKHPEVTAKVQEEIERVIGRNRSPCMQDRGHMPYTDAVVHEVQRYIDLIPTSLPHAVTCDVKFRNYLIPKGTTILTSLTSVLHDNKEFPNPEMFDPRHFLDEGGNFKKSNYFMPFSAGKRICVGEGLARMELFLFLTFILQNFNLKSLIDPKDLDTTPVVNGFASVPPFYQLCFIPV
# Legend:
# CYP2D6 [1] = molecular target: T1, CYP2D6 (Homo sapiens, UniProt P10635); details: liver microsomes; Lineweaver–Burk's plots
# T1 sequence (P10635 whole entry): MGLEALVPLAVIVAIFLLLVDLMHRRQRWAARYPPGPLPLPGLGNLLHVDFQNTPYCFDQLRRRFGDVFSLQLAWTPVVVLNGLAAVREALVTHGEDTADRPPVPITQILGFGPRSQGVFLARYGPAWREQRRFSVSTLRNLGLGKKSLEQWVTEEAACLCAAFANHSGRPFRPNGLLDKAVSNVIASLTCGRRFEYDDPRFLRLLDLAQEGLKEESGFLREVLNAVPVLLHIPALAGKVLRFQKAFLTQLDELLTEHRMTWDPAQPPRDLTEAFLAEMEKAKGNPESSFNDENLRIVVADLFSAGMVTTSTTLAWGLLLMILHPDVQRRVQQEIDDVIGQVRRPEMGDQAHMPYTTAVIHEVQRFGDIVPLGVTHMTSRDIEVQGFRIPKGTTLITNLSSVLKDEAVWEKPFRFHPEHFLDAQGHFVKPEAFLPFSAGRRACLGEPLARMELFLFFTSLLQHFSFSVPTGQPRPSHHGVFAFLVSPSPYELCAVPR
# [2] = molecular target: human cDNA-expressed CYP3A4 (Homo sapiens, UniProt P08684)
# Chain of human cDNA-expressed CYP3A4 (P08684 whole entry): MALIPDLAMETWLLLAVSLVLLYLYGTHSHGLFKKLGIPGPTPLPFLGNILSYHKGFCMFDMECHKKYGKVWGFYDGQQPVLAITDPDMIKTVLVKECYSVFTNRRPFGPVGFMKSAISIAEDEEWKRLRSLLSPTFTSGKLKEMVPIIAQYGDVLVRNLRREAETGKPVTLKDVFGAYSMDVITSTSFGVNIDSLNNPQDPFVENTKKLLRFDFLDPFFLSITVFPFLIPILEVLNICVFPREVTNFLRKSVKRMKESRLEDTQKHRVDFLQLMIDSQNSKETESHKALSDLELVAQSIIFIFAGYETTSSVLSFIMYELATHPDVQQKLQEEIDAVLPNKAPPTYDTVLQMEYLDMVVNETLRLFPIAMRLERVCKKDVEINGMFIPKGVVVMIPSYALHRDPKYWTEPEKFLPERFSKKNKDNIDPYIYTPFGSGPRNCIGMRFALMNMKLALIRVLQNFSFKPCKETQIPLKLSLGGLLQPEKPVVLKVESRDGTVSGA
# CYP1A2 [3] = molecular target: T2, CYP1A2 (Homo sapiens, UniProt P05177); details: liver microsomes; Lineweaver–Burk's plots
# T2 sequence (P05177 1-516): B1 chain
# [4] = cited from earlier work
# [5] = molecular target: T3, human cDNA-expressed CYP2D6 (Homo sapiens, UniProt P10635)
# T3 sequence (P10635 whole entry): as the sequence (P10635 whole entry) above
# [6] = cited from earlier work; remark: listed apart in the source
# CYP2C9 [7] = molecular target: T4, CYP2C9 (Homo sapiens, UniProt P11712); assay: CYP2C9 activity, diclofenac 4′-hydroxylation, pooled human liver microsomes
# T4 sequence (P11712 whole entry): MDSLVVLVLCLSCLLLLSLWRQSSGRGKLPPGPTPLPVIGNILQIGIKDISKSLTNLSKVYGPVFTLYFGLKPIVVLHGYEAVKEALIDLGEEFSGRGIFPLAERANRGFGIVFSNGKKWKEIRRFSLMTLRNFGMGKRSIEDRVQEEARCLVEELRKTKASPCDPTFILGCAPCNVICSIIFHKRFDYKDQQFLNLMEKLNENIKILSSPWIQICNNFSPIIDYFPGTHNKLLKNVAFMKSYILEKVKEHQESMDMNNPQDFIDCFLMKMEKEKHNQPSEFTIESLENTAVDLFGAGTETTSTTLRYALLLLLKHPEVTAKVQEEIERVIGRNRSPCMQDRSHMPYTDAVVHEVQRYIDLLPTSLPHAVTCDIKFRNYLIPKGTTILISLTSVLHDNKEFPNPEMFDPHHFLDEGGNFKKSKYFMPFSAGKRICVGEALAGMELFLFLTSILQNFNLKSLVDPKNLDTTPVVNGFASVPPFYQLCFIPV
# Description: (§1) The final incubation volume was 0.5 ml. After a 30-min incubation, the reaction was stopped by adding 100 µl of acetonitrile. […] The final concentration of CYP2C9 was 50 pmol/ml. Concentrations of diclofenac and its metabolite 4′-hydroxydiclofenac, formed in liver microsomes or Supersomes 2C9, were assessed by the HPLC method with UV detection, as described previously.
# CYP2D6 [8] = molecular target: T1, CYP2D6; design: method as in PMID 26033329; details: psychiatric patients; cited from earlier work
# CYP2C19 [9] = molecular target: T5, CYP2C19 (Homo sapiens, UniProt P33261)
# CYP3A4 [10] = molecular target: T6, CYP3A4 (Homo sapiens, UniProt P08684)
# T6 sequence (P08684 whole entry): as the sequence (P08684 whole entry) above
# [11] = molecular target: human cDNA-expressed CYP2C9 (Homo sapiens, UniProt P11712); assay: CYP2C9 activity, diclofenac 4′-hydroxylation, Supersomes CYP2C9
# Chain of human cDNA-expressed CYP2C9 (P11712 whole entry): as the sequence (P11712 whole entry) above
# Description: as §1
# [12] = molecular target: T3, human cDNA-expressed CYP2D6; details: recombinant enzyme
# CYP2D6 [13] = molecular target: T1, CYP2D6
# [14] = cited from earlier work; remark: listed apart in the source
# CYP1A2 [15] = molecular target: T2, CYP1A2
# CYP2C19 [16] = molecular target: T5, CYP2C19; details: liver microsomes; asenapine 0.01-10 μM
# CYP2C9 [17] = molecular target: T4, CYP2C9; assay: CYP2C9 activity, diclofenac 4′-hydroxylation, Supersomes CYP2C9; details: human, pH 7.4, probe diclofenac (4′-hydroxylation)
# Description: as §1
# [18] = clinical studies; cited from earlier work
# CYP3A4 [19] = molecular target: T6, CYP3A4; assay: in vitro; details: pH 7.4
# CYP3A4 [20] = molecular target: T6, CYP3A4; assay: in vitro; details: pH 7.4; remark: listed apart in the source
# [21] = substrate: Cn1c(=O)c2c(ncn2C)n(C)c1=O
# [22] = substrate: CN1CCN(CCCN2c3ccccc3Sc3ccccc32)CC1
molecule,measurement,setting,value
CN1CC2c3ccccc3Oc3ccc(Cl)cc3C2C1 (stereo not drawn) [Asenapine],type of inhibition (CYP2D6),CYP2D6 [1],competitive
same,type of inhibition (CYP3A4),[2]; recombinant enzyme,non-competitive
same,type of inhibition (CYP1A2),CYP1A2 [3],mixed
same,pKa,[4]; amine,9.64
same,log P,[4]; cationic form,1.4
same,log P,[4]; neutral form,4.9
same,pKa,[4]; protonated base,8.6
same,IC50,[5],0.398 µM
same,Ki,[5],1.89 µM
same,bound to plasma proteins,[6],95%
same,IC50,CYP2C9 [7],> 1000 µM
same,effect on the activity of CYP2C9,"CYP2C9 [7]; liver microsomes, asenapine 0.01-10 μM",did not affect
same,effect on the concentration of paroxetine (a CYP2D6 substrate) in the blood plasma,CYP2D6 [8],doubled
same,IC50,CYP2C19 [9],> 1000 µM
same,type of inhibition (CYP3A4),"CYP3A4 [10]; liver microsomes, Lineweaver–Burk's plots",non-competitive
same,IC50,[11],> 1000 µM
same,type of inhibition (CYP2D6),[12],competitive
same,IC50,CYP2D6 [13],0.391 µM
same,Ki,CYP2D6 [13],1.75 µM
same,estimated terminal half-life (t1/2),[14]; adults,approximately 24 h
same,therapeutic plasma concentrations,[14],up to 0.1 μM
same,IC50,CYP1A2 [15],0.697 µM
same,Ki,CYP1A2 [15],3.2 µM
same,effect on the activity of CYP2C19,CYP2C19 [16],did not affect
O=C(O)Cc1ccccc1Nc1c(Cl)cccc1Cl [diclofenac],Km at 30 min,"CYP2C9 [7]; human, pH 7.4",137 µM
same,"Vmax, diclofenac 4′-hydroxylation",[11]; Supersomes CYP2C9,213.6 pmol/pmol CYP/min
same,Km at 30 min,CYP2C9 [17],132 µM
O=C(CCCN1CCC(O)(c2ccc(Cl)cc2)CC1)c1ccc(F)cc1 [haloperidol],concentration in the liver relative to that in plasma,[18],900 fold
C[C@]12CC[C@H]3[C@@H](CCC4=CC(=O)CC[C@@]43C)[C@@H]1CC[C@@H]2O [testosterone],"Vmax, testosterone 6β-hydroxylation",[2]; Supersomes CYP3A4,42.9 pmol/pmol CYP/min
same,"Vmax, testosterone 6β-hydroxylation",CYP3A4 [10]; human liver microsomes,72.9 pmol/mg protein/min
same,Km at 20 min,CYP3A4 [19],283 µM
same,Km at 30 min,CYP3A4 [20],428 µM
B1,Km,[21],709 µM
same,Vmax,[21],9.67 pmol/mg protein/min
B2,Km,[22],199.9 µM
same,Vmax,[22],1.58 nmol/mg protein/min
